From paper PMC11320730, “5-Methoxy-2-aminoindane Reverses Diet-Induced Obesity and Improves Metabolic Parameters in Mice: A Potential New Class of Antiobesity Therapeutics” (ACS Pharmacology & Translational Science, 2024)

Experiments:
[1] = test system: liver of DIO C57BL/6 mice; test: Liver weight, hepatic triglyceride and cholesterol contents, histopathology and Oil Red O staining in DIO mice; assay type: in vivo; conditions: 40 mg/kg/day
Description: Male C57BL/6 mice were used to establish DIO by feeding them a high-fat diet (HFD; 60% cal/L fat, 20% cal/L protein, and 20% cal/L carbohydrates; Research Diet, D12492) for 18 weeks. After this period, mice were treated with either vehicle (sterile water, N = 8) or MEAI (N = 11) daily for 28 days by gavage at a dose of 40 mg/kg/day. Age-matched control mice (N = 10) on a standard diet (STD; 14% kcal fat, 24% kcal protein, 62% kcal carbohydrates; NIH-31 rodent diet) received vehicle daily. The body weight of all mice was monitored daily, and total body fat and lean mass were determined by EchoMRI-100H (Echo Medical Systems LLC, Houston, Texas, USA). On day 29, at the end of the experimental period, mice were euthanized by a cervical dislocation under anesthesia. The kidneys, brain, liver, and fat pads were removed and weighed, and samples were either snap-frozen or fixed in buffered 4% formalin. Trunk blood was collected to determine the biochemical parameters.
At the time of animal sacrifice, liver tissue was extracted following the established protocol described previously.[19] The extracted liver tissue was then analyzed for cholesterol and triglyceride contents using a Cobas C-111 chemistry analyzer (Roche, Switzerland).
Paraffin-embedded liver sections (5 μm) from five animals per group were processed for hematoxylin–eosin staining. Liver images were captured using a Zeiss Axio Scope A1 light microscope (Carl Zeiss AG, Jena, Germany) equipped with a Zeiss AxioCam ICc 5 color camera. Ten random 40× fields of view were taken from each animal to obtain representative images.
Liver cryosections (8 μm) were stained with Oil Red O (Cat# ab150678; Abcam, Cambridge, UK) following the manufacturer’s protocol. Images were acquired as described above. For quantitative analysis of Oil Red O staining, the area of lipid droplets in the liver cryosections was measured using ImageJ software.

5-HT2B = 5-HT2B (Homo sapiens, UniProt P41595); test: Ligand binding assay (Eurofins); parameters: Eurofins (contract screening service); conditions: read-out: inhibitory activity (% inhibition of the binding of a specific ligand)
5-HT2B, sequence (P41595 whole entry): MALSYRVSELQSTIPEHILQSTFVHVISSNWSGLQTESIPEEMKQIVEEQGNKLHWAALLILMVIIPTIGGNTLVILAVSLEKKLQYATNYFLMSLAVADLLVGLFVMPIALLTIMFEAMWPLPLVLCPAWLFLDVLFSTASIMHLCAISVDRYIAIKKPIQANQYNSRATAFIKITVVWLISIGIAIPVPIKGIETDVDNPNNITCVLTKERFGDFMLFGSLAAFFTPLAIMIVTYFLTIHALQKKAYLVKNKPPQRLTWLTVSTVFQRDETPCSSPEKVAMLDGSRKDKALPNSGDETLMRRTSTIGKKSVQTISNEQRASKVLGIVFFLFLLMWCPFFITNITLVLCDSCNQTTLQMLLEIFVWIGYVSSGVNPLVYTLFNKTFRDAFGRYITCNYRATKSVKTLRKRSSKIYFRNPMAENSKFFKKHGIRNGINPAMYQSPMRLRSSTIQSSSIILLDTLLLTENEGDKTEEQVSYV
Description: MEAI at 10 μM was tested in ligand binding assays at Eurofins Inc., as described previously.[20] Compound binding was calculated as a % inhibition of the binding of a ligand specific for each target. Results showing an inhibition or stimulation higher than 50% are considered to represent significant effects of MEAI. In each experiment, and if applicable, the respective reference compound was tested concurrently with MEAI and the data were compared with historical values determined at Eurofins. The experiment was accepted in accordance with the Eurofins validation Standard Operating Procedure.

MAO-B = test system: MAO-B; parameters: method as in PMID 29458138; conditions: cited from earlier work

In the case of `COc1ccc2c(c1)CC(N)C2.Cl` (centres unmarked) [MEAI, 2,3-Dihydro-5-methoxy-1H-inden-2-amine hydrochloride], the “Oil Red O staining of liver” value ([1]; DIO mice, vs HFD vehicle) is reported as “decrease”, the hepatic cholesterol levels ([1]; DIO mice, vs HFD vehicle) is reported as “trend toward a reduction” and the “lipid vacuole numbers in liver” value ([1]; DIO mice, vs HFD vehicle) is reported as “reduced”. The liver triglycerides ([1]; DIO mice, vs HFD vehicle) was “significant reductions”, the liver weight ([1]; HFD-fed mice, 28 days) was “reduced” and the “liver weight to body weight ratio” value ([1]; HFD-fed mice, 28 days) was “normalized”. For the same compound, the inhibition at 10 µM (5-HT2B) was greater than 50% and the binding inhibition (MAO-B) was “unaffected”.
